Test results as given in article PMC7579840 (Journal of medicinal chemistry, 2019).
Like-named read-outs stand apart in the source and are kept apart here. One block for each compound: values may come before it.

Legend:
panel of 54 kinases [1] = details: overall selectivity; cited from earlier work
HeLa pEGFP-CK2α cells = test: Subcellular localization of EGFP-CK2α, cell imaging; format: cell-based; details: 12 h
panel of 54 kinases [2] = test: Overall selectivity in kinase panel; details: 5 μM
Dyrk1A = Dyrk1A (Homo sapiens, UniProt Q13627); test: Kinase selectivity panel; details: 5 μM 27
[3] = target: CK2α2β2 (peptide substrate) (Homo sapiens, UniProt P68400); test: Radiometric kinase assay with CK2α2β2, peptide substrate; format: biochemical; details: peptide 29 and peptide M substrates (Figure 2B)
human CK2α1−335 = target: T1, human CK2α1−335 (Homo sapiens, UniProt P68400); test: Isothermal titration calorimetry; format: binding; details: ITC
T1 sequence (P68400 1-335): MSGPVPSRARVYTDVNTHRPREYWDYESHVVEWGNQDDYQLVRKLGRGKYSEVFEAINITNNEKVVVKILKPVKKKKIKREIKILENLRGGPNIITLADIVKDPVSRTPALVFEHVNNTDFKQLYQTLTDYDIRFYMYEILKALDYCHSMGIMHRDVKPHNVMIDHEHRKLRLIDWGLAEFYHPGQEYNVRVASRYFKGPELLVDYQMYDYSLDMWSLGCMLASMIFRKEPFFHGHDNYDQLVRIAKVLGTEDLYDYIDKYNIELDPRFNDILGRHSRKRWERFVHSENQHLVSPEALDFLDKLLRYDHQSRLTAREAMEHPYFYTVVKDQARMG

CK2α = CK2α (Homo sapiens, UniProt P68400); details: previous hit compounds included for comparison; cited from earlier work
Sequence of CK2α (P68400 whole entry): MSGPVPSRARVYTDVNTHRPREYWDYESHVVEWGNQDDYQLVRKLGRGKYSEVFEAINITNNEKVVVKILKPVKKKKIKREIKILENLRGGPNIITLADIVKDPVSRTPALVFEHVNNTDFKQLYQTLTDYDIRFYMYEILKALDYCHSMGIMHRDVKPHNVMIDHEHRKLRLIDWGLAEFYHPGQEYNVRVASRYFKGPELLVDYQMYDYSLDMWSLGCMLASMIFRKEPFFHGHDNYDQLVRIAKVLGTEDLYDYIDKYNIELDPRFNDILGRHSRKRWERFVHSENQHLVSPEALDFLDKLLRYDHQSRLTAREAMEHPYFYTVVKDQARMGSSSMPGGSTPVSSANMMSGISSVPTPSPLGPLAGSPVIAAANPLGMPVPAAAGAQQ

Sequence of CK2α2β2 (peptide substrate) (P68400 whole entry): as above
Sequence of CK2α2β2 (peptide substrate) (P67870 whole entry partner): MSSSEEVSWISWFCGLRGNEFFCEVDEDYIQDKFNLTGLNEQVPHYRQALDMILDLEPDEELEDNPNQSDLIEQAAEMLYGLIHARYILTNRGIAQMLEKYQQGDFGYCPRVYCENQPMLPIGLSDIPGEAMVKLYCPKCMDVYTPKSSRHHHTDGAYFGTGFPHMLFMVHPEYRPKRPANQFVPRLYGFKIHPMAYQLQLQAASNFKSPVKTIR

SMILES: O=C(O)c1ccc2c(c1)nc(Nc1cccc(Cl)c1)c1ccncc12 [CX-4945, 5-(3-chlorophenylamino)benzo[c][2,6]naphthyridine-8-carboxylic acid, reference compound]
Gini coefficient (panel of 54 kinases [1]): 0.67 | subcellular localization of EGFP-CK2α (HeLa pEGFP-CK2α cells; 8 μM): significant translocation of EGFP-CK2α from the nucleoli to the nuclear matrix and the cytoplasm compartments

Gini coefficient (panel of 54 kinases [2]): 0.78 | inhibition of Dyrk1A (Dyrk1A): only weakly inhibited | inhibition of holoenzyme complex compared with CK2α [3]: same potency | TΔS (human CK2α1−335): 2.53 ± 0.29 kcal/mol
SMILES: O=C(O)c1ccc(Nc2nc(-c3ccc4ccccc4c3)cs2)cc1O [compound 27, 2-Hydroxy-4-((4-(naphthalen-2-yl)thiazol-2-yl)amino)benzoic acid]
subcellular localization of EGFP-CK2α (HeLa pEGFP-CK2α cells; 15 μM): nucleolar localization pattern of EGFP-CK2α was mostly retained

SMILES: O=C(O)c1cccc(Nc2nc(-c3cccc([N+](=O)[O-])c3)cs2)c1 [compound 1, 3-((4-(3-nitrophenyl)thiazol-2-yl)amino)benzoic acid]
IC50 (CK2α): 30 µM
